Test results published in patent US6313171A, “Method for preventing or treating elevated blood lipid level-related diseases by administering cinnamic acid derivatives” (Korea Research Institute of Bioscience & Biotechnology, priority 1998, dated 2001).

System: not given
Assay: not given
Type: in vivo, rabbit (New Zealand White)
Details: rabbits, 1% cholesterol diet plus 0.1% derivative or 1 mg/kg Lovastatin, 8 weeks; Control 2.5 ± 0.4
Procedure: (§1) 30 three-month-old male New Zealand White rabbits (Yeonam Horticulture and Animal Husbandry College, Korea), each weighing about 2.5 to 2.6 kg, were raised under condition of temperature 20±2° C., relative humidity 55±5%, and photoperiod 12L/12D. The rabbits were divided into 5 groups and 5 groups of rabbits were fed with 5 different diets, i.e., RC4 diet (Oriental Yeast Co., Japan) containing 1% cholesterol (Control group); 1% cholesterol plus 1 mg/kg Lovastatin® (Merck, U.S.A.) (Lovastatin group); 1% cholesterol plus 0.1% 4-hydroxycinnamic acid (4-hydroxycinnamic acid group); 1% cholesterol plus 0.1% 3,4-dihydroxycinnamic acid (3,4-dihydroxycinnamic acid group); and 1% cholesterol plus 0.1% 3,4-dihydroxyhydrocinnamic acid (3,4-dihydroxyhydrocinnamic acid group), respectively. RC4 diet comprises 7.6% moisture, 22.8% crude protein, 2.8% crude fat, 8.8% crude ash, 14.4% crude cellulose and 43.6% soluble nitrogen-free substances. Cinnamic acid derivatives were purchased from Sigma Chemical Co. (St. Louis, Mo.).
(§2) The rabbits were fed for 8 weeks while being allowed free access to the diets and water.
After eight weeks, the rabbits were anesthetized with an intramuscular injection of ketamine (50 mg/kg) in the femoral region and sacrificed. A blood sample was taken from the heart of each rabbit, allowed to stand for 2 hours and centrifuged at 3,000 rpm for 15 minutes and the supernatant serum was separated and stored in a freezer before use.
The chemical analysis of blood was carried out by employing a blood chemical analyzer (CIBA Corning 550 Express, USA) to determine the changes in GOT, GPT, total cholesterol, HDL-cholesterol and triglyceride levels.

| SMILES | HDL/TC [%] |
| --- | --- |
| O=C(O)/C=C/c1ccc(O)c(O)c1 [3,4-dihydroxycinnamic acid] | 3.4 ± 0.4 |
| O=C(O)CCc1ccc(O)c(O)c1 [3,4-dihydroxyhydrocinnamic acid] | 6.3 ± 1.6 |
| O=C(O)/C=C/c1ccc(O)cc1 [4-Hydroxycinnamic acid, 4-hydroxycinnamic acid] | 3.7 ± 1.3 |

Same assay, conditions: rabbits, 1% cholesterol diet plus 0.1% derivative or 1 mg/kg Lovastatin, 8 weeks; Control 50 ± 11

| SMILES | HDL-C (High density lipoprotein-cholesterol) [mg/dL] |
| --- | --- |
| O=C(O)/C=C/c1ccc(O)c(O)c1 [3,4-dihydroxycinnamic acid] | 53 ± 13 |
| O=C(O)CCc1ccc(O)c(O)c1 [3,4-dihydroxyhydrocinnamic acid] | 80 ± 23 |
| O=C(O)/C=C/c1ccc(O)cc1 [4-Hydroxycinnamic acid, 4-hydroxycinnamic acid] | 57 ± 28 |

Same assay, conditions: rabbits, 1% cholesterol diet plus 0.1% derivative or 1 mg/kg Lovastatin, 8 weeks; Control 170 ± 30

| SMILES | TG (Triglyceride) [mg/dL] |
| --- | --- |
| O=C(O)/C=C/c1ccc(O)c(O)c1 [3,4-dihydroxycinnamic acid] | 139 ± 46 |
| O=C(O)CCc1ccc(O)c(O)c1 [3,4-dihydroxyhydrocinnamic acid] | 108 ± 22 |
| O=C(O)/C=C/c1ccc(O)cc1 [4-Hydroxycinnamic acid, 4-hydroxycinnamic acid] | 167 ± 43 |

Same assay, conditions: rabbits, 1% cholesterol diet plus 0.1% derivative or 1 mg/kg Lovastatin, 8 weeks; Control 1995 ± 472

| SMILES | TC (Total cholesterol) [mg/dL] |
| --- | --- |
| O=C(O)/C=C/c1ccc(O)c(O)c1 [3,4-dihydroxycinnamic acid] | 1559 ± 347 |
| O=C(O)CCc1ccc(O)c(O)c1 [3,4-dihydroxyhydrocinnamic acid] | 1256 ± 150 |
| O=C(O)/C=C/c1ccc(O)cc1 [4-Hydroxycinnamic acid, 4-hydroxycinnamic acid] | 1517 ± 417 |

System: main artery
Assay: Analysis for fatty streak in the main artery of rabbits
Type: in vivo, rabbit (New Zealand White)
Details: FIGS. 1A-1E; control: a thick layer
Procedure: Cinnamic acid derivatives were purchased from Sigma Chemical Co. (St. Louis, Mo.). The rabbits were fed for 8 weeks while being allowed free access to the diets and water. The chest of each of the rabbits sacrificed in Step 2 was incised. […] The main artery was incised in the middle along the longitudinal axis and pinned to a dish. The moist artery was photographed and, then, the staining of fatty streaks was carried out in accordance with the method of […]., et al. (J. Lab. Clin. Med., 121, 103-110(1993)) as follows. A part of the incised main artery was washed three times with anhydrous propylene glycol for 2 min. and stained for 30 min. with a saturated solution of Oil Red O (ORO, Sigma Co.) dissolved in propylene glycol. Thereafter, the artery was washed twice with 85% propylene glycol for 3 min. to remove remaining staining solution and, then washed with physiological saline. The artery was photographed and the photograph was traced. The area of stained region (fatty streak region) was determined with an image analyzer (LEICA, Q-600, Germany) and its proportion (%) to the total arterial area was calculated.

| SMILES | macrophage-lipid complex on the arterial endothelium |
| --- | --- |
| O=C(O)/C=C/c1ccc(O)c(O)c1 [3,4-dihydroxycinnamic acid] | no or very thin layers of macrophage-lipid complex |
| O=C(O)CCc1ccc(O)c(O)c1 [3,4-dihydroxyhydrocinnamic acid] | no or very thin layers of macrophage-lipid complex |
| O=C(O)/C=C/c1ccc(O)cc1 [4-Hydroxycinnamic acid, 4-hydroxycinnamic acid] | no or very thin layers of macrophage-lipid complex |

Same assay, conditions: proportion of total arterial area, Oil Red O, rabbits, 8 weeks; Control 80 ± 8

| SMILES | Fatty streak [%] |
| --- | --- |
| O=C(O)/C=C/c1ccc(O)c(O)c1 [3,4-dihydroxycinnamic acid] | 13 ± 5 |
| O=C(O)CCc1ccc(O)c(O)c1 [3,4-dihydroxyhydrocinnamic acid] | 16 ± 1 |
| O=C(O)/C=C/c1ccc(O)cc1 [4-Hydroxycinnamic acid, 4-hydroxycinnamic acid] | 24 ± 11 |

System: ACAT
Assay: ACAT assay, liver microsomes of the fed rabbits
Type: biochemical, rabbit
Details: rabbits fed 0.1% in 1% cholesterol diet; Control 0

| SMILES | Inhibition on ACAT activity [%] |
| --- | --- |
| O=C(O)/C=C/c1ccc(O)c(O)c1 [3,4-dihydroxycinnamic acid] | 33 |
| O=C(O)CCc1ccc(O)c(O)c1 [3,4-dihydroxyhydrocinnamic acid] | 37 |
| O=C(O)/C=C/c1ccc(O)cc1 [4-Hydroxycinnamic acid, 4-hydroxycinnamic acid] | 9 |

System: liver
Assay: Prevention of hepatic diseases: microscopic fatty liver grading in rabbits
Type: in vivo, rabbit (New Zealand White)
Details: FIGS. 2A-2E; control: many cells containing excessive fat around the central vein
Procedure: as §1, §2

| SMILES | microscopic features of the liver |
| --- | --- |
| O=C(O)/C=C/c1ccc(O)c(O)c1 [3,4-dihydroxycinnamic acid] | almost all liver cells are of a normal shape |
| O=C(O)CCc1ccc(O)c(O)c1 [3,4-dihydroxyhydrocinnamic acid] | almost all liver cells are of a normal shape |
| O=C(O)/C=C/c1ccc(O)cc1 [4-Hydroxycinnamic acid, 4-hydroxycinnamic acid] | almost all liver cells are of a normal shape |

Same assay, conditions: grades 1+(0-25%), 2+(26-50%), 3+(51-75), 4+(76-100%); rabbits, 8 weeks; Control 3.2 ± 0.3

| SMILES | fatty liver grade (1+ to 4+) |
| --- | --- |
| O=C(O)/C=C/c1ccc(O)c(O)c1 [3,4-dihydroxycinnamic acid] | 2.6 ± 0.3 |
| O=C(O)CCc1ccc(O)c(O)c1 [3,4-dihydroxyhydrocinnamic acid] | 2.6 ± 0.3 |
| O=C(O)/C=C/c1ccc(O)cc1 [4-Hydroxycinnamic acid, 4-hydroxycinnamic acid] | 2.7 ± 0.3 |
